# Laboratory results: patent US9169254B2, “Spiroimidazolone derivative” (Chugai Seiyaku Kabushiki Kaisha, priority 2009, dated 2015)
# Target: T1, human PTH1 receptor (Homo sapiens, UniProt Q03431)
# T1 sequence (Q03431 27-593): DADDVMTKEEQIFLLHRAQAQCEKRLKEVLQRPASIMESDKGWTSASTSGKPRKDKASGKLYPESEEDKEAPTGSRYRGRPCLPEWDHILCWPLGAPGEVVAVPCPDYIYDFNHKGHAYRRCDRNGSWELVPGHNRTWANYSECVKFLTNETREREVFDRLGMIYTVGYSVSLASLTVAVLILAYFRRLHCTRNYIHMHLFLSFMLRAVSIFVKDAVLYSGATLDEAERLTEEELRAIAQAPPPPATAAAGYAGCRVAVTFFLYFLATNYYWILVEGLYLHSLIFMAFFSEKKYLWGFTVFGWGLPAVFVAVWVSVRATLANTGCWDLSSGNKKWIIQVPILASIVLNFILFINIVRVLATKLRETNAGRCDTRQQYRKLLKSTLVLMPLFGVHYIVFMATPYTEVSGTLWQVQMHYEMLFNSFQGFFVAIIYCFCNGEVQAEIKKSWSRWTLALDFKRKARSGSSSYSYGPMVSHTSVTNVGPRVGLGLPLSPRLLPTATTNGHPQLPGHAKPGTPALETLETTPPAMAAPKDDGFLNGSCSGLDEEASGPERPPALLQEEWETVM
# Test: In vitro cAMP signal activity in HKRK-B7 cells (LLC-PK1 cells overexpressing the human PTH1 receptor)
# Type: cell-based
# Conditions: 0.1 µM
row,Structure (SMILES),cAMP production activity (%)
1,"Cc1cc(N(C)C(N)=O)cc(C)c1CC[S@TB4](=O)(=O)N1CCC2(CC1)N=C(c1ccc([Si](C)(C)C)cc1)NC2=O [Compound 1139, 1-(3,5-dimethyl-4-{2-[4-oxo-2-(4-trimethylsilanyl-phenyl)-1,3,8-triaza-spiro[4.5]dec-1-ene-8-sulfonyl]-ethyl}-phenyl)-1-methyl-urea]",86%

# Same assay, conditions: HKRK-B7 cells; compound at 1×10^−3 M; […]; 0.1 µM
row,Structure (SMILES),cAMP production activity (%)
1,"CNN(C)C(=O)c1cc(C)c(CCS(=O)(=O)N2CCC3(CC2)N=C(C2CCC(CCC(F)(F)F)CC2)NC3=O)c(C)c1 (stereo not drawn) [Compound 888, 3,5-Dimethyl-4-(2-{4-oxo-2-[4-(3,3,3-trifluoro-propyl)-cyclohexyl]-1,3,8-triaza-spiro[4.5]dec-1-ene-8-sulfonyl}-ethyl)-benzoic acid N,N′-dimethyl-hydrazide]",86%

# Same assay, conditions: HKRK-B7 cells; compound at 1×10^−3 M; cAMP produced as percentage of that produced by hPTH(1-34) at 100 nM
row,Structure (SMILES),cAMP production activity (%)
1,"Cc1cc(C(=O)N2CCC(O)(CF)CC2)cc(C)c1CCS(=O)(=O)N1CCC2(CC1)N=C(c1ccc(C(F)(F)F)c(Cl)c1)NC2=O [Compound 1278, 2-(3-chloro-4-trifluoromethyl-phenyl)-8-{2-[4-(4-fluoromethyl-4-hydroxy-piperidine-1-carbonyl)-2,6-dimethyl-phenyl]-ethanesulfonyl}-1,3,8-triaza-spiro[4.5]dec-1-en-4-one]",95%
2,"CC(C)(C)COC(=O)N1CCCC(C2=NC3(CCN(S(=O)(=O)CCc4cccc5ccccc45)CC3)C(=O)N2)C1 (stereo not drawn) [Compound 465, 3-[8-(2-naphthalen-1-yl-ethanesulfonyl)-4-oxo-1,3,8-triaza-spiro[4.5]dec-1-en-2-yl]-piperidine-1-carboxylic acid 2,2-dimethyl-propyl ester]",66%
3,"Cc1cc(C(=O)N2CC3(COC3)C2)cc(C)c1/C=C/S(=O)(=O)N1CCC2(CC1)N=C(c1ccc(F)c(C(F)(F)F)c1)NC2=O [Compound 967, 8-{(E)-2-[2,6-Dimethyl-4-(2-oxa-6-aza-spiro[3.3]heptane-6-carbonyl)-phenyl]-ethenesulfonyl}-2-(4-fluoro-3-trifluoromethyl-phenyl)-1,3,8-triaza-spiro[4.5]dec-1-en-4-one]",44%
4,"N#Cc1c[nH]c2cccc(CCS(=O)(=O)N3CCC4(CC3)N=C(C3CCCCC3)NC4=O)c12 [Compound 646, 4-[2-(2-cyclohexyl-4-oxo-1,3,8-triaza-spiro[4.5]dec-1-ene-8-sulfonyl)-ethyl]-1H-indole-3-carbonitrile]",99%
5,Cc1cc2ccc1CCS(=O)(=O)N1CCC3(CC1)N=C(NC3=O)c1cc(cc(C(F)(F)F)c1)OCCC=CCCCN(C)C2=O [Compound 1406],7.3%
6,"COc1cc(NC(C)=O)ccc1CCS(=O)(=O)N1CCC2(CC1)N=C(C1CCC(C)CC1)NC2=O (stereo not drawn) [Compound 655, N-(3-Methoxy-4-{2-[2-(4-methyl-cyclohexyl)-4-oxo-1,3,8-triaza-spiro[4.5]dec-1-ene-8-sulfonyl]-ethyl}-phenyl)-acetamide]",74%
7,"Cc1cc(C(=O)N2CCCO2)cc(C)c1CCS(=O)(=O)N1CCC2(CC1)N=C(C1CCC(CCC(F)(F)F)CC1)NC2=O (stereo not drawn) [Compound 1181, 8-{2-[4-(isoxazolidine-2-carbonyl)-2,6-dimethyl-phenyl]-ethanesulfonyl}-2-[4-(3,3,3-trifluoro-propyl)-cyclohexyl]-1,3,8-triaza-spiro[4.5]dec-1-en-4-one]",98%
8,"Cc1cc(S(N)(=O)=O)ccc1/C=C/S(=O)(=O)N1CCC2(CC1)N=C(c1cccc(C(F)(F)F)c1)NC2=O [Compound 213, 3-methyl-4-{(E)-2-[4-oxo-2-(3-trifluoromethyl-phenyl)-1,3,8-triaza-spiro[4.5]dec-1-ene-8-sulfonyl]-vinyl}-benzenesulfonamide]",74%
9,"CC(C)(C)C1=NC2(CCN(S(=O)(=O)c3cccc(Cl)c3)CC2)C(=O)N1 [Compound 16, 2-tert-butyl-8-(3-chloro-benzenesulfonyl)-1,3,8-triaza-spiro[4.5]dec-1-en-4-one]",41%
10,"Cc1cc(CN2C(=O)CCC2=O)cc(C)c1CCS(=O)(=O)N1CCC2(CC1)N=C(C1CCC(CCC(F)(F)F)CC1)NC2=O (stereo not drawn) [Compound 777, 1-[3,5-dimethyl-4-(2-{4-oxo-2-[4-(3,3,3-trifluoro-propyl)-cyclohexyl]-1,3,8-triaza-spiro[4.5]dec-1-ene-8-sulfonyl}-ethyl)-benzyl]-pyrrolidine-2,5-dione]",71%
11,"O=C1NC(C2CCCCC2)=NC12CCN(S(=O)(=O)CCc1ccc3c(ccn3C[C@H](O)CO)c1)CC2 [Compound 872, 2-cyclohexyl-8-{2-[1-((S)-2,3-dihydroxy-propyl)-1H-indol-5-yl]-ethanesulfonyl}-1,3,8-triaza-spiro[4.5]dec-1-en-4-one]",109%
12,"Cc1cc(C(=O)N2C[C@H](NC(C)C)[C@@H](O)C2)cc(C)c1/C=C/S(=O)(=O)N1CCC2(CC1)N=C(c1cccc(OC(F)(F)F)c1)NC2=O [Compound 406, 8-{(E)-2-[4-((3S,4S)-3-hydroxy-4-isopropylamino-pyrrolidine-1-carbonyl)-2,6-dimethyl-phenyl]-ethenesulfonyl}-2-(3-trifluoromethoxy-phenyl)-1,3,8-triaza-spiro[4.5]dec-1-en-4-one]",100%
13,"Cc1cc(C(=O)N(C)C)ccc1CCS(=O)(=O)N1CCC2(CC1)N=C(c1cccc(OC(F)(F)F)c1)NC2=O [Compound 99, 3,N,N-trimethyl-4-{2-[4-oxo-2-(3-trifluoromethoxy-phenyl)-1,3,8-triaza-spiro[4.5]dec-1-ene-8-sulfonyl]-ethyl}-benzamide]",80%
14,"Cc1cc(CN(C)C(N)=O)cc(C)c1/C=C/S(=O)(=O)N1CCC2(CC1)N=C(C1CCC(CCC(F)(F)F)CC1)NC2=O (stereo not drawn) [Compound 1300, 1-[3,5-Dimethyl-4-((E)-2-{4-oxo-2-[4-(3,3,3-trifluoro-propyl)-cyclohexyl]-1,3,8-triaza-spiro[4.5]dec-1-ene-8-sulfonyl}-vinyl)-benzyl]-1-methyl-urea]",81%
15,"Cc1cc(C(=O)N2CCC(O)(CF)CC2)cc(C)c1CCS(=O)(=O)N1CCC2(CC1)N=C(c1ccc3c(c1)OC(F)(F)O3)NC2=O [Compound 1275, 2-(2,2-difluoro-benzo[1,3]dioxol-5-yl)-8-{2-[4-(4-fluoromethyl-4-hydroxy-piperidine-1-carbonyl)-2,6-dimethyl-phenyl]-ethanesulfonyl}-1,3,8-triaza-spiro[4.5]dec-1-en-4-one]",89%
16,Cc1cc2ccc1CCS(=O)(=O)N1CCC3(CC1)N=C(NC3=O)c1cc(cc(C(F)(F)F)c1)OCCCCCOCCN(C)C2=O [Compound 1421],49%
17,"Cc1cc(N(C)C(N)=O)cc(C)c1/C=C/S(=O)(=O)N1CCC2(CC1)N=C(c1cccc(-c3cccc(-c4ccccc4)c3)c1)NC2=O [Compound 1157, 1-{3,5-Dimethyl-4-[(E)-2-(4-oxo-2-[1,1′;3′,1″]terphenyl-3-yl-1,3,8-triaza-spiro[4.5]dec-1-ene-8-sulfonyl)-vinyl]-phenyl}-1-methyl-urea]",44%
18,"CC(=O)N(CCOCCO)c1cc(C)c(/C=C/S(=O)(=O)N2CCC3(CC2)N=C(C2CCC(CCC(F)(F)F)CC2)NC3=O)c(C)c1 (stereo not drawn) [Compound 699, N-[3,5-Dimethyl-4-((E)-2-{4-oxo-2-[4-(3,3,3-trifluoro-propyl)-cyclohexyl]-1,3,8-triaza-spiro[4.5]dec-1-ene-8-sulfonyl}-vinyl)-phenyl]-N-[2-(2-hydroxy-ethoxy)-ethyl]-acetamide]",101%
19,"CCCCCCCCCC1=NC2(CCN(S(=O)(=O)/C=C/c3c(C)cc(N(CCO)C(C)=O)cc3C)CC2)C(=O)N1 [Compound 701, N-{3,5-dimethyl-4-[(E)-2-(2-nonyl-4-oxo-1,3,8-triaza-spiro[4.5]dec-1-ene-8-sulfonyl)-vinyl]-phenyl}-N-(2-hydroxy-ethyl)-acetamide]",140%
20,"O=C(Nc1ccc(CCS(=O)(=O)N2CCC3(CC2)N=C(C2CCCCC2)NC3=O)c(C(F)(F)F)c1)c1ccccc1 [Compound 662, N-{4-[2-(2-cyclohexyl-4-oxo-1,3,8-triaza-spiro[4.5]dec-1-ene-8-sulfonyl)-ethyl]-3-trifluoromethyl-phenyl}-benzamide]",23%
21,"Cc1cc(C(=O)N2CCC(O)(CF)CC2)cc(C)c1CCS(=O)(=O)N1CCC2(CC1)N=C(C1CCC(C)CC1)NC2=O (stereo not drawn) [Compound 1383, 8-{2-[4-(4-fluoromethyl-4-hydroxy-piperidine-1-carbonyl)-2,6-dimethyl-phenyl]-ethanesulfonyl}-2-(4-methyl-cyclohexyl)-1,3,8-triaza-spiro[4.5]dec-1-en-4-one]",96%
22,"Cc1cc(C(=O)N2CCC(C)(O)CC2)cc(C)c1/C=C/S(=O)(=O)N1CCC2(CC1)N=C(c1cccc(OC(F)(F)C(F)F)c1)NC2=O [Compound 1100, 8-{(E)-2-[4-(4-Hydroxy-4-methyl-piperidine-1-carbonyl)-2,6-dimethyl-phenyl]-ethenesulfonyl}-2-[3-(1,1,2,2-tetrafluoro-ethoxy)-phenyl]-1,3,8-triaza-spiro[4.5]dec-1-en-4-one]",76%
